Test results as given in PMC12406664, “New derivatives of 6-nitrocoumarin-3-thiosemicarbazone exhibit improved antiparasitic activity in the placenta against Trypanosoma cruzi and Toxoplasma gondii” (Antimicrobial Agents and Chemotherapy, 2025).
Read-outs that look alike come from different tables or passages of the source.

Experiments:
[1] = tested on: intracellular amastigotes of T. cruzi (Tulahuen β-gal); test: Intracellular amastigotes, β-galactosidase-expressing T. cruzi in LLC-MK2 cells (CPRG); format: cell-based, Trypanosoma cruzi; settings: 72 h
Description: The effect of the compounds over intracellular amastigotes of a β-galactosidase-expressing recombinant strain of T. cruzi (Tulahuen β-gal) was also evaluated (see Table S4 at https://doi.org/10.5281/zenodo.15694236). […] Similarly, intracellular anti-T. gondii tachyzoite was assessed using quantitative immunocytochemistry targeting the parasite’s P30 protein (see Table S4 at https://doi.org/10.5281/zenodo.15694236). […] The complete absence of activity of hydroxylated compounds against intracellular forms of both parasites was confirmed, which could be attributed to their inability to permeate mammalian cell membranes.
LLC-MK2 cells (2 × 10^4/well), suspended in 200 µL DMEM with 10% FBSi and 1% antibiotics (penicillin-streptomycin), were placed in each well of a 96-well plate and incubated for 24 hours. Subsequently, the culture medium was removed, and cell monolayers were infected by placing five trypomastigotes per cell in 200 µL of DMEM 2 for 24 hours under the same incubation conditions. After infection, the culture medium was removed, and cells were washed 4 times with 1× sterile PBS. Finally, 10 twofold serial dilutions (200 µM to 0.39 µM concentration range) of each compound, in DMEM 2 without phenol red, were placed in duplicate wells in a 96-well plate and incubated for 72 hours. […] Absorbance at 600 nm was read 4 hours later, in a multimodal GloMax microplate reader (Promega).

[2] = tested on: T. cruzi trypomastigotes, Dm28 strain; test: Resazurin viability assay on free T. cruzi trypomastigotes
Description: The reduction of resazurin sodium salt was used to determine the trypanocidal and toxoplasmicidal activity of the 6-nitrocoumarin-thiosemicarbazone hybrids 1–8. For this, treatment with the compounds was carried out for 24 h at a concentration of 100 µM.
NFX was used as a positive control for T. cruzi, and PMN was used for T. gondii. Untreated parasites served as a negative control. […] Subsequently, parasites with their respective conditions were transferred to a 96-well white fluorescence reading plate, adding resazurin at a final concentration of […] with 0.8 mM phenazine. The plate was incubated for 3 hours at 37°C in a humidified atmosphere with 5% CO2, and fluorescence measurements were taken using a microplate reader (Thermo Scientific Varioskan Flash) at excitation wavelengths of 560 nm and emission wavelengths of 590 nm.

[3] = Cyclic voltammetry, reduction potentials in DMSO (HDME, vs. Ag/AgCl); settings: 2.00 V/s
Description: Electrochemical studies were carried out on a Metrohm Autolab instrument model PGSTAT204, using dimethyl sulfoxide (DMSO) as the solvent (1 mM solutions), tetrabutylammonium perchlorate (0.1 M TBAP) as the supporting electrolyte, a hanging drop mercury electrode (HDME) as the working electrode, Ag/AgCl (3M KCl) as the reference electrode and a graphite rod as the counter electrode. All measurements were performed after bubbling with nitrogen (N2) for 10 minutes.

[4] = tested on: T. gondii tachyzoites, RH strain; test: Resazurin viability assay on free T. gondii tachyzoites; format: cell-based, Toxoplasma gondii; settings: Toxoplasma gondii; tachyzoites RH; 100 µM; 24 h
Source text: Untreated parasites served as a negative control.

[5] = Lipophilicity by reversed-phase TLC (RM); settings: reverse phase-C18, DMSO/phosphate buffer pH 7.4 (70:30 vol/vol), RM = log[(1/Rf) – 1]
Description: Lipophilicity was studied by reversed-phase TLC experiments. Precoated TLC plates SIL RP-18W/UV254 were used and eluted with DMSO/physiological serum (70:30, vol/vol). Stock solutions were prepared in pure DMSO (Aldrich) prior to use. The plates were developed in a closed chromatographic tank, dried, and the spots were located under UV light. The Rf values were averaged from three determinations and converted into RM values via the relationship: RM = log [(1/Rf)−1]

[6] = tested on: T. gondii tachyzoites (strain RH); test: ESR spin trapping with DMPO in T. gondii; format: cell-based, Toxoplasma gondii; settings: compound about 1 mM, menadione 20 µM
Description: (§1) Each tested hybrid was dissolved in spectroscopy-grade DMSO at an approximate concentration of 1 mM and added to a mixture containing Trypanosoma cruzi (Dm28c strain) or Toxoplasma gondii at a density of 50 × 10⁶ trypomastigotes or tachyzoites per mL, along with DMPO at a final concentration of 250 mM. Menadione (20 µM) was used as a positive control.
(§2) All spectra were acquired on the same scale after 15 scans.

[7] = tested on: T. gondii tachyzoites (strain RH); test: Intracellular ROS generation (DCF probe) in T. gondii; format: cell-based, Toxoplasma gondii; settings: compound at IC50, menadione 20 µM, 40 minutes, vs untreated control
Description: ROS detection was performed using the 2′,7′-dichlorodihydrofluorescein diacetate (DCFH2-DA) method ([45]). For the assay, Dm28c trypomastigotes and tachyzoites were seeded in 96-well plates at a density of 10⁶ parasites/mL. In contrast, BeWo cells were seeded at 5 × 10⁴ cells per well, using the previously described culture medium.
After incubation with 20 µM DCFH2-DA for 15 minutes at 37°C, the parasites were centrifuged at 3,500 × g, washed twice with PBS (pH 7.4), and subsequently transferred to Nunc 96-well fluorescence plates. Meanwhile, after 24 hours of incubation at 37°C and 5% CO₂, the culture medium of BeWo cells was replaced, and 20 µM DCFH2-DA solution was added, followed by a 15 minute incubation at 37°C. The cells were then washed with PBS at pH 7.4. As a positive control, 20 µM menadione was used, while the negative control consisted of culture medium without compounds.
Over time, the area under the fluorescence increase curve was determined using Origin 8 software (version 9.2), with normalization relative to the control. The results correspond to three independent experiments' mean ± standard deviation (SD).

[8] = tested on: T. cruzi trypomastigotes (strain Dm28); test: ESR spin trapping with DMPO in T. cruzi; format: cell-based, Trypanosoma cruzi; settings: compound about 1 mM, menadione 20 µM
Description: as §1, §2

[9] = tested on: HPE exposed to T. cruzi trypomastigotes; test: Histopathology of HPE infected with T. cruzi; format: cell-based, human; settings: co-incubation, IC50 concentration
[10] = tested on: T. cruzi trypomastigotes, Dm28 strain; settings: read-out: IC50 T. cruzi; cited from earlier work
[11] = vs. Ag/AgCl; cited from earlier work
[12] = Cytotoxicity on cells (resazurin), EA.hy926; format: cell-based; settings: human, EA.hy926 endothelial cells
Source text: (§3) Triton X-100 was used as a positive control, and untreated cells served as a negative control. In addition, the maximum concentration of DMSO was used as a control for the method. […] The obtained values were expressed as IC50([88]).

[13] = tested on: T. cruzi (Dm28 strain) in HPE; test: T. cruzi DNA load in infected human placental explants (HPE) by real-time qPCR; format: cell-based, Trypanosoma cruzi; settings: IC50 concentration
Source text: Cells or HPE were exposed to parasites. […] The following treatment conditions were used in both infection models.

[14] = tested on: T. cruzi (Dm28 strain) in BeWo cells; test: Infection of BeWo cells by T. cruzi, infected cells counted by fluorescence microscopy; format: cell-based, Trypanosoma cruzi; settings: compound at IC50, untreated control 24 ± 3
Description: The effect of the compounds on the infection of BeWo trophoblast cells by T. gondii and T. cruzi was assessed. The DNA of T. gondii and T. cruzi was quantified in infected BeWo cells treated for 24 hours under two conditions: co-incubation and post-infection treatment. […] Fluorescence microscopy was employed to quantify the number of infected cells. The resulting images were analyzed using ImageJ software to count both infected and uninfected cells.
For the microscopic analysis of BeWo cells infected with T. cruzi, the cells were washed with PBS to remove the supernatant, fixed with 90% cold methanol, rewashed with PBS, and incubated for 5 minutes with 1 µg/mL—1 4,6-diamidino-2-phenylindole (DAPI) (Molecular Probes). To analyze BeWo cells infected with T. gondii, cells were fixed with 90% cold methanol, washed with PBS containing 0.05% Tween, and blocked using 3% BSA for 1 hour at 37°C. Then, they were incubated with the primary monoclonal antibody Toxoplasma gondii (TP3): sc-52255 at a dilution of 1:500 with 1% BSA overnight at 4°C. […] T. cruzi amastigotes were identified by their morphology, including nuclear size and the presence of a kinetoplast, and were analyzed and quantified using ImageJ. At least 500 cells per condition were analyzed, and infected and non-infected cells were counted for every 100 cells ([35], [70]). […]

[15] = Cytotoxicity on cells (resazurin), BeWo; format: cell-based; settings: human, BeWo trophoblast cells
Source text: as §3

[16] = tested on: human placental explants (HPE); test: Histopathology of uninfected HPE exposed to the compounds alone; settings: explants incubated only with the compound, 24 h, IC50 concentration
Description: The HPE was fixed in 10% formaldehyde in 0.1 M phosphate buffer (pH 7.3) for 24 h, dehydrated in alcohol, clarified in xylene, embedded in paraffin, and sectioned at 3 µm. Paraffin histological sections were stained with hematoxylin-eosin for routine histological analysis, Picro Sirius red, and trichromic Masson for collagen histochemistry. Sections for the histological analysis were observed under an optical microscope (Leica DM500) and images were captured with a Leica ICC50 W camera ([7], [91]).

C/C(=N\NC(=S)Nc1ccccc1)c1cc2cc([N+](=O)[O-])ccc2oc1=O [Compound 8, (E)−2-(1-(6-nitro-2-oxo-2H-chromen-3-yl)ethylidene)-N-phenylhydrazine-1-carbothioamide]
activity over intracellular amastigotes [1]: most active
viability at 100 µM ([2]; Trypanosoma cruzi, 24 h, read-out: Viability T. cruzi (%)): 45.2 ± 6.7%
E(pIIa) ([3]; anodic peak IIa): −0.86 V
E(pIIIc) ([3]; cathodic peak IIIc, hydroxylamine formation): −1.39 V
E(pIIc) ([3]; cathodic peak IIc, nitro anion radical couple): −0.94 V
E(pIVc) ([3]; cathodic peak IVc, imine reduction): −1.68 V
viability at 100 µM [4]: 86.2 ± 14.4%
Lipophilicity (RM) [5]: 0.20

CC1=CC(=O)c2ccccc2C1=O [menadione, reference compound]
radical species detected by ESR spin trapping (DMPO) [6]: formation of multiple signals
ROS generation (DCF fluorescence) [7]: significant increase in ROS production
radical species detected by ESR spin trapping (DMPO) [8]: triplet (aN ~15.5 G) corresponding to a DMPO-derived oxidized paramagnetic compound

CC1CS(=O)(=O)CCN1/N=C/c1ccc([N+](=O)[O-])o1 (stereo not drawn) [NFX, nifurtimox, reference compound]
tissue damage in infected HPE (histopathology) [9]: caused tissue damage
SI = BeWo CC50/parasite IC50 ([2]; parasite T. cruzi): >30
SI = EA.hy926 CC50/parasite IC50 ([2]; parasite T. cruzi): 34.9
IC50 [10]: 10 ± 0.4 µM
E(pIIa) [11]: −0.70 V
E(pIIc) [11]: −0.75 V
CC50 at 24 h [12]: 348.5 ± 1.2 µM
effect on parasite DNA load ([13]; co-incubation): managed to reduce the parasitic load
effect on parasite DNA load ([13]; post-infection treatment): no statistically significant activity
Infected cells (%) ([14]; co-incubation 24 h): 2 ± 1%
Infected cells (%) ([14]; post-infection treatment 24 h): 23 ± 4%
CC50 at 24 h [15]: > 300 µM
tissue damage caused by the compound itself in HPE [16]: caused tissue damage
